Measured values published in patent US7388028B2, “Methoxypolyethylene glycol thioester chelate and uses thereof” (priority 2006, dated 2008).

Tests used:
[1] = system: NMDA retinal damage model; assay: NMDA retinal damage model, electroretinogram A and B waves; assay type: in vivo, rats
Experimental: NMDA retinal damage model: Changes in electroretinogram (ERG) A and B waves have been used as indicators of RGC damage. To examine RGC neuroprotection, 2 ul intravitreal injections of 10 mM NMDA, sufficient to change ERG A and B-waves within 2 weeks, were challenged with co-administered intravitreal (2 mM) or topical 100 mM MPDTE, MPSEDE and amifostine in normal rats unilaterally. For topical administration, rats were pretreated for 5 days prior and 3 days post-NMDA administration with the agents at a frequency of 3 times per day with 20 μl agent. Scotopic ERG changes were measured in normal rats. Rats were dark adapted for at least 4 hrs. Eyes were dilated with atropine after which proparacaine and methylcellulose gel were applied topically. Custom made AgCl electrodes (64-1317, Warner Instruments, Hamden, Conn.) were placed on the apex of the cornea. Stimuli consisted of 10-microsec flashes of unattenuated white light generated by Ganzfield bowl photo stimulator (Grass Instruments, PS22, Quincy, Mass.). Data from each eye was recorded separately with a driver amplifier (Grass Instruments, Model 7DAF Polygraph, Quincy, Mass.). Data was acquired digitally via DASYLab (Bedford, N.H.). The contralateral normal eye served as an age matched negative control, e.g. response in a normal, undamaged eye. Differences in amplitude of the A-wave and B-waves between the treated eye and the contralateral eye and between treatment groups were calculated.

[2] = system: rat surgical glaucoma model (intraocular pressure); assay: Topical application of MP compounds, IOP measurements on rat surgical glaucoma model; assay type: in vivo, rats
Experimental: Rat ocular hypertensive model: Ocular hypertension was induced in 9 male SpragueDawley rats, weighing between 400 to 500 grams. Under general anesthesia with acepromazine maleate (12 mg/Kg) and ketamine (80 mg/Kg), IP, and topical proparacaine (0.5%), dissection of the conjunctiva was made with fine cuts. To reduce the stimulus for revascularization or neovascularization, dissection of the right eye was limited to the area immediately surrounding the vortex veins. Three of four vortex veins were exposed and ligated using 9.0 nylon sutures. Criterion for inclusion into the study was an intraocular pressure (IOP) increase of 5 mm Hg or more when compared to […] baseline IOP. Within 6 weeks, the IOP of all the operated eyes increased at least 5 mm Hg compared to baseline. National Institutes of Health Guidelines and Association for Research in Vision and Opthalmology statement for the Use and Care of Animals were followed in this study.
Intraocular pressure (IOP) Measurements: Prior to initiation of treatment, baseline IOP was obtained in glaucoma rat models. IOP was measured via a specially modified Goldmann applanation tonometer (HAAG-STREIT, Bern, Switzerland) under sedation. Measurements are averages of two consecutive readings and were made at the same time of day and by the same observers.
Topical application of MP compounds for IOP measurements on rat surgical glaucoma model: Rats were treated topically with 20 μl of MP compounds (0.3-100 mM; n=3-6) on the operated eyes. The MP compounds were compared to 10 or 87 mM topical amifostine, a free radical scavenger. MP esterified chelators were diethylenetriaminepentaacetic acid (MPDTE) and MPSEDE.

[3] = Intravitreal agent (2 mM) co-administered with intravitreal 10 mM NMDA
[4] = Topical agent (100 mM, 3 times per day, 5 days prior and 3 days post-NMDA), intravitreal 10 mM NMDA

Molecule	A wave [1, 3] [% Baseline]	B wave [1, 3] [% Baseline]	A wave [1, 4] [% Baseline]	B wave [1, 4] [% Baseline]	IOP reduction ([2]; topical 10 mM or 87 mM)	IOP reduction ([2]; single topical dose of 10-100 mM, operated eye, FIG. 5-7)	reduction of NMDA damage ([1]; both intravitreal and topical administration (Table 1))	reduction of NMDA damage ([1]; co-administration with NMDA, at the dose tested)	IOP reduction ([2]; administered alone or together, FIG. 10, not as great as with MPDTE)
CN[C@H](CC(=O)O)C(=O)O [NMDA, N-methyl-D-aspartate, reference compound]	51.2	68.4	51.2	68.4					
NCCCNCCSP(=O)(O)O [amifostine, S-2-[3-aminopropylamino] ethylphosphorothioate]					No reduction in IOP				
methoxypolyethlene glycol thioester of ethylenediaminetetraacetic acid methyl triester [MPSEDE]	76.2	69.6	95.9	93.7		significantly reduced IOP	significantly reduced NMDA damage	trend to reduce NMDA damage, but this was not significant	
polyethylene glycol monomethyl ether [MP]									reduction in IOP
